The subject of data set [1] is rats. Conditions: os, literature values; cited from earlier work.
For data set [2], the system named is rice. Put plainly: Outdoor comparison of rice stimulating action of M3432 with lower homologues and isomers (Example 11). Conditions: 21 days after sowing. The data set is classed as in vivo. How it is done: In the province of Pavia, a test was carried out with outdoor treatments in a loam soil, on rice plots having a 12 m^2 surface each.
Formulations of 20% M3432 in emulsifiable oil were compared with 20% formulations in emulsifiable oil of S-benzyl-N,N-diisopropyl thiocarbamate; S-benzyl-N,N-diisobutylthiocarbamate; and S-benzyl-N,N-din.butylthiocarbamate employing quantities of 4, 6 and 20 kg./ha.
For each treatment, the results were gathered on 20 plants 21 days after the sowing.

The test system of data set [3] is mice. Particulars: os, literature values; cited from earlier work.
For data set [4], the system named is rice. Conditions: Belgian Pat. No. 728,265; cited from earlier work.

SMILES strings stand for the structures.

Take `CCC(=O)Nc1ccc(Cl)c(Cl)c1` [Propanil, N(3,4-dichlorophenyl)-propionamide]: in data set [1], the “Acute toxicity LD50” value was 1384 mg/kg.
Regarding `CCCCN(CCCC)C(=O)SCc1ccccc1` [S-benzyl-N,N-din.butyl-thiocarbamate, S-benzyl-N,N-din.butylthiocarbamate], in data set [2] (4 kg./ha.), the Main roots was determined as 3.26 No, the Secondary roots was 1.78 No and the Shoot came out at 4.76 cm. Further, in data set [2] (6 kg./ha.), the Main roots was determined as 2.81 No, the Secondary roots amounted to 1.94 No and the Shoot worked out at 5.24 cm. In data set [2] (20 kg./ha.), this compound came in with a Main roots of 1.94 No, a Secondary roots of 2.05 No and a Shoot of 2.34 cm.
Take `CCN(CC)C(=O)SCc1ccc(Cl)cc1` [Saturn, S(4-chlorobenzyl)N,N-diethylthiocarbamate]: the “Acute toxicity LD50” value in data set [3] is 560 mg/kg.
In data set [2] (4 kg./ha.), `CC(C)N(C(=O)SCc1ccccc1)C(C)C` [S-benzyl-N,N-diisopropylthiocarbamate, S-benzyl-N,N-diisopropyl thiocarbamate] registered a Main roots of 3.45 No, a Secondary roots of 2.52 No and a Shoot of 5.36 cm. In data set [2] (6 kg./ha.), the Main roots is on record as 3.67 No, the Secondary roots amounted to 1.63 No and the Shoot was found to be 5.44 cm. Also, in data set [2] (20 kg./ha.), the Main roots is 2.79 No, the Secondary roots was 1.21 No and the Shoot worked out at 4.03 cm.
On to `COC(=O)Nc1ccc(Cl)c(Cl)c1` [Swep, methyl-N-(3,4-dichlorophenyl)carbamate], for which the “Acute toxicity LD50” value in data set [1] is 552 mg/kg.
On to `CCN(CC)C(=O)SCc1ccccc1` [S-benzyl-N,N-diethylthiocarbamate], for which the “Aggressiveness towards rice compared with ring-substituted monothiocarbamates” value in data set [4] is on record as “more aggressive towards the rice”.
Take `Oc1c(Cl)c(Cl)c(Cl)c(Cl)c1Cl` [Pentachlorophenol]: in data set [1], the “Acute toxicity LD50” value was 78 to 280 mg/kg.
Regarding `CC(C)CN(CC(C)C)C(=O)SCc1ccccc1` [S-benzyl-N,N-diisobutylthiocarbamate], in data set [2] (4 kg./ha.), the Main roots stood at 3.21 No, the Secondary roots amounted to 1.68 No and the Shoot was determined as 5.25 cm. Moreover, in data set [2] (6 kg./ha.), the Main roots turned out to be 2.76 No, the Secondary roots turned out to be 1.57 No and the Shoot is listed as 4.21 cm. In data set [2] (20 kg./ha.), this compound came in with a Main roots of 2.59 No, a Secondary roots of 1.52 No and a Shoot of 3.96 cm.
Regarding `O=[N+]([O-])c1ccc(Oc2ccc(Cl)cc2Cl)cc1` [Nitrofen, 2,4-dichlorophenyl-4'-nitrophenylether], in data set [1], the “Acute toxicity LD50” value was 3000 mg/kg.

The record behind these values is patent US3930838A, “S-benzyl-N,N-disec-butylthiocarbamate and its use as a rice field herbicide and a rice growth stimulant” (priority 1970, dated 1976).
